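Compound exposure: 48 hours, 5 concentrations, 96-well plates. Here, GI50 denotes the concentration required for 50% inhibition of growth. The concentration for full growth arrest is given as TGI.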
Columns and labels:
Assay in all cases: growth of human tumour cells (NCI), 48 h
DU-145 prostate = test system: DU-145 prostate
MDA-MB-231 breast = test system: MDA-MB-231 breast
SK-OV-3 ovarian = test system: SK-OV-3 ovarian
BT-549 breast = test system: BT-549 breast
U251 CNS = test system: U251 CNS
SF-539 CNS = test system: SF-539 CNS
NCI-H522 lung = test system: NCI-H522 lung
A498 renal = test system: A498 renal
RXF 393 renal = test system: RXF 393 renal
HOP-92 NSCLC = test system: HOP-92 NSCLC

Row | Structure (SMILES) | TGI (DU-145 prostate) | TGI (MDA-MB-231 breast) | TGI (SK-OV-3 ovarian) | TGI (BT-549 breast) | TGI (U251 CNS) | TGI (SF-539 CNS) | TGI (NCI-H522 lung) | TGI (A498 renal) | GI50 (DU-145 prostate) | GI50 (MDA-MB-231 breast) | GI50 (SK-OV-3 ovarian) | GI50 (BT-549 breast) | GI50 (U251 CNS) | GI50 (RXF 393 renal) | TGI (RXF 393 renal) | GI50 (SF-539 CNS) | GI50 (HOP-92 NSCLC) | TGI (HOP-92 NSCLC) | GI50 (NCI-H522 lung) | GI50 (A498 renal)
1 | N[C@H]1CCC[C@@H](O)C1O (stereo partly drawn) | > 100 µM | > 100 µM | > 100 µM | > 100 µM | > 100 µM | > 100 µM | > 100 µM | > 100 µM | – | – | – | – | – | – | – | – | – | – | – | –
2 | CC(C)(C)OC(=O)NCCCCCCCCCn1c2c(c3ccccc3c1=O)C(=O)c1ccccc1-2 | > 100 µM | > 100 µM | 78.3 µM | > 100 µM | > 100 µM | 52.8 µM | > 100 µM | – | > 100 µM | 31.7 µM | 23.6 µM | 35.1 µM | 22 µM | 20.5 µM | > 100 µM | 18 µM | 14.6 µM | 41.6 µM | 44.9 µM | –
3 | Cc1cc(NS(=O)(=O)c2ccc(NC(=O)c3ccc(Cl)c4c(Nc5ccc(S(=O)(=O)Nc6cc(C)on6)cc5)c5ccccc5nc34)cc2)no1 | – | – | 42.2 µM | – | 32.8 µM | 32.3 µM | 33.2 µM | 47.4 µM | – | – | – | – | – | – | – | – | – | 46.2 µM | – | –
4 | CC(C)(C)c1cc(C2c3cc4c(cc3OC(O)(CO)C2C(=O)O)OCO4)cc(C(C)(C)C)c1O (stereo not drawn) (tested in a mixture with another compound) | – | – | 45.8 µM | – | 29.1 µM | 25.8 µM | – | – | – | – | – | – | – | – | 29.4 µM | – | – | 43.7 µM | – | –
5 | CC(C)(C)C1=CC(=N/N=c2\scc(-c3ccccc3)n2Cc2ccccc2)C=C(C(C)(C)C)C1=O | – | – | – | – | > 100 µM | > 100 µM | – | > 100 µM | – | – | – | – | – | – | > 100 µM | – | – | – | – | –
6 | N#CN1CC[C@@H]2CC3(CCC2C1)OCCO3 (stereo partly drawn) | – | – | > 100 µM | – | > 100 µM | > 100 µM | – | > 100 µM | – | – | – | – | – | – | > 100 µM | – | – | > 100 µM | – | –
7 | OCc1c(-c2cccs2)oc(-c2cccs2)c1CO | > 100 µM | 94 µM | – | > 100 µM | > 100 µM | > 100 µM | > 100 µM | 91.7 µM | 67.9 µM | 47.3 µM | – | 56 µM | 71.9 µM | 22.7 µM | 78.5 µM | 50.9 µM | 42.8 µM | > 100 µM | 39.1 µM | 34.3 µM
8 | COc1ccc2nc3cc(Cl)ccc3c(Sc3ccc(N)cc3)c2c1 | – | – | 18.3 µM | – | 22.6 µM | 27.9 µM | 16.2 µM | 76.3 µM | – | – | – | – | – | – | 24.7 µM | – | – | 39.7 µM | – | –
9 | O=C(CCN1CCCC1)Nc1ccc2c(Nc3ccc(F)cc3)c3ccccc3nc2c1 | 2.03 µM | 3.34 µM | – | 4.28 µM | 3.03 µM | 3.05 µM | 3.25 µM | 4.89 µM | 0.513 µM | 1.48 µM | – | 1.73 µM | 1.17 µM | 1.23 µM | 2.64 µM | 1.61 µM | 1.18 µM | 2.68 µM | 1.31 µM | 1.03 µM
10 | C=CC[P@]1(=O)O[C@H](c2ccccc2)C(C)N1C(C)C (stereo partly drawn) | – | – | > 100 µM | – | > 100 µM | > 100 µM | > 100 µM | > 100 µM | – | – | – | – | – | – | > 100 µM | – | – | > 100 µM | – | –
11 | CC1=CC(=O)NP(=O)(Oc2ccc(Cl)cc2)N1 (stereo not drawn) | – | – | > 100 µM | – | > 100 µM | > 100 µM | > 100 µM | > 100 µM | – | – | – | – | – | – | > 100 µM | – | – | > 100 µM | – | –
12 | CC(=O)/C=C1\CC(=O)N(C)c2ccccc2N1 | – | – | > 100 µM | – | > 100 µM | > 100 µM | > 100 µM | – | – | – | – | – | – | – | > 100 µM | – | – | > 100 µM | – | –
13 | CCN(Cc1ccc(Cl)c(Cl)c1)c1ccc2nc(N)nc(N)c2c1C | 2 µM | – | 2.22 µM | 7.27 µM | – | 1.48 µM | 1.82 µM | 3.63 µM | 0.0544 µM | – | 0.172 µM | 0.296 µM | – | – | – | 0.0695 µM | 0.24 µM | 1.82 µM | 0.0378 µM | 0.785 µM
14 | O=S(=O)(F)Cc1ccccc1 | > 100 µM | > 100 µM | > 100 µM | > 100 µM | > 100 µM | > 100 µM | > 100 µM | > 100 µM | – | – | – | – | – | – | – | – | – | > 100 µM | – | –
15 | O=C(NCCCN1CCN(CCCNC(=O)c2cccc3ccccc23)CC1)c1cccc2ccccc12 | – | – | 57.6 µM | – | > 100 µM | > 100 µM | – | > 100 µM | – | – | – | – | – | – | – | – | – | 21.3 µM | – | –
16 | COc1ccc(/C=C\c2cc(OC)c(OC)c(OC)c2)cc1NC(=O)/C=C/c1ccc(OC)c(OC)c1 | > 100 µM | > 100 µM | 0.676 µM | > 100 µM | > 100 µM | 52.6 µM | > 100 µM | > 100 µM | 4.93 µM | 25.5 µM | 0.0736 µM | 7.7 µM | 3.53 µM | – | – | 3.1 µM | > 100 µM | > 100 µM | 2.61 µM | 0.184 µM
17 | COCN1COCN(C)C1=O | – | – | > 100 µM | – | > 100 µM | > 100 µM | – | > 100 µM | – | – | – | – | – | – | – | – | – | > 100 µM | – | –
18 | Cn1cc(-c2ccc3c4ccccc4n(C)c3c2)c2ccccc21 | – | – | > 100 µM | – | > 100 µM | > 100 µM | > 100 µM | > 100 µM | – | – | – | – | – | – | > 100 µM | – | – | – | – | –
19 | COC1CCCc2c(OC(C)=O)ccc(OC(C)=O)c21 (stereo not drawn) | – | – | > 100 µM | – | > 100 µM | – | – | – | – | – | – | – | – | – | > 100 µM | – | – | 34.1 µM | – | –
20 | CN(c1cccc(C(=O)O)c1)c1cc(O/N=[N+](\[O-])N(C)C)c([N+](=O)[O-])cc1[N+](=O)[O-] | > 100 µM | > 100 µM | – | > 100 µM | > 100 µM | > 100 µM | > 100 µM | – | > 100 µM | > 100 µM | – | > 100 µM | > 100 µM | > 100 µM | > 100 µM | > 100 µM | – | – | > 100 µM | –
21 | CCCC(=O)Oc1ccc(/C(=C(\C)c2ccc(Cl)cc2)c2ccc(OCCN(CC)CC)cc2)cc1 | 12.4 µM | 5.13 µM | 17.5 µM | 18.9 µM | 4.06 µM | 3.98 µM | 29.5 µM | – | 3.46 µM | 2.42 µM | 4.85 µM | 4.85 µM | 1.95 µM | 1.72 µM | 3.55 µM | 1.94 µM | 7.76 µM | 23.4 µM | 12.9 µM | –
